Laboratory results: PubChem BioAssay (NCI)
Values joined by “and” are separate entries in the source; they are usually repeats but may differ in a detail not shown here. Identical values can stand only once.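 In this assay, cells in 96-well plates receive the compound at five concentrations for 48 hours. Endpoints are linearly interpolated between the surrounding concentrations. The concentration for 50% growth inhibition is given as GI50. TGI is the concentration that stops growth completely.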

Columns and labels:
Test in all cases: growth of human tumour cells (NCI), 48 h
DU-145 prostate = test system: DU-145 prostate
HS 578T breast = test system: HS 578T breast
IGROV1 ovarian = test system: IGROV1 ovarian
K-562 leukemia = test system: K-562 leukemia
NCI-H23 lung = test system: NCI-H23 lung
OVCAR-4 ovarian = test system: OVCAR-4 ovarian
SF-539 CNS = test system: SF-539 CNS
SK-MEL-5 melanoma = test system: SK-MEL-5 melanoma
SN12C renal = test system: SN12C renal
U251 CNS = test system: U251 CNS

| Structure (SMILES) | GI50 (DU-145 prostate) | TGI (DU-145 prostate) | GI50 (HS 578T breast) | TGI (HS 578T breast) | GI50 (IGROV1 ovarian) | TGI (IGROV1 ovarian) | GI50 (K-562 leukemia) | TGI (K-562 leukemia) [µM] | GI50 (NCI-H23 lung) | TGI (NCI-H23 lung) | GI50 (OVCAR-4 ovarian) | TGI (OVCAR-4 ovarian) | GI50 (SF-539 CNS) | TGI (SF-539 CNS) | GI50 (SK-MEL-5 melanoma) | TGI (SK-MEL-5 melanoma) | GI50 (SN12C renal) | TGI (SN12C renal) | GI50 (U251 CNS) | TGI (U251 CNS) |
| --- | --- | --- | --- | --- | --- | --- | --- | --- | --- | --- | --- | --- | --- | --- | --- | --- | --- | --- | --- | --- |
| CC(C)[C@H](C(=O)O[C@@H]1/C=C/C(=O)O[C@@H](C)CCC/C=C/[C@@H]2C[C@H](O)C[C@H]21)N(C)C | 31.5 µM | > 100 µM | 2.2 µM | 45.9 µM | 22.8 µM | > 71.3 µM | 23.7 µM | 58.1 | 16.8 µM | > 83.6 µM | 8.7 µM | > 94.5 µM | 10.2 µM | 58.9 µM | 1.75 µM | 3.44 µM | 26.7 µM | > 68.7 µM | 20.3 µM | > 100 µM |
| CCCCCCSc1nc(COC(=O)NC)c(COC(=O)NC)n1C |  | > 100 µM |  | > 100 µM |  | > 100 µM |  | > 100 |  | > 100 µM |  | > 100 µM |  | > 100 µM |  | > 100 µM |  | > 100 µM |  | > 100 µM |
| CC12CC(=O)C3C(CCC4=CC(=O)CCC43C)C1CC=C2CC(=O)O (stereo not given) |  | > 100 µM |  | > 100 µM |  | > 100 µM |  | > 100 |  | > 100 µM |  | > 100 µM |  | > 100 µM |  | > 100 µM |  | > 100 µM |  | > 100 µM |
| CN1CCN(c2ccc(Nc3ncc4cc5n(c4n3)C3(CCCCC3)CNC5=O)nc2)CC1 | 3.43 µM | 17.2 µM | 1.71 µM | 8.8 µM | 2.42 µM | 16.4 µM | 2.17 µM | 18.4 | 2.19 µM | 15.7 µM | 2.86 µM | 15.4 µM | 2.29 µM | 6.72 µM | 3.2 µM | 15.6 µM | 1.5 µM | 12.2 µM | 1.32 µM | 28.2 µM |
| Cn1cc(C2=C(c3c(S(C)=O)n(C)c4ccccc34)C(=O)NC2=O)c2ccccc21 (stereo not given) | 8.9 µM | > 25 µM | 5.57 µM | 24.9 µM | 10.8 µM | > 25 µM | 8.89 µM | > 25 | 9.79 µM | > 25 µM | 16.1 µM | > 25 µM | 6.35 µM | > 20.1 µM | 6.96 µM | > 25 µM | 14 µM | > 25 µM | 8.64 µM | > 25 µM |
| N[C@@H](CSSC[C@H](N)C(=O)N1CCn2cc(-c3ccccc3)nc2[C@@H]1CC1CCCCC1)C(=O)N1CCn2cc(-c3ccccc3)nc2[C@@H]1CC1CCCCC1 | 2.45 µM | 8.65 µM | 3.1 µM | > 100 µM | 2.41 µM | 5.96 µM | 1.48 µM | > 100 | 1.41 µM | 3.14 µM | 2.15 µM | 4.8 µM | 1.75 µM | 3.55 µM | 0.361 µM | 1.53 µM | 1.62 µM | 3.56 µM | 1.37 µM | 2.76 µM |
| CC1COCCN1CC#CCOC(=O)c1cc2ccccc2oc1=O (stereo not given) | > 100 µM | > 100 µM | 62.4 µM | > 100 µM | > 100 µM | > 100 µM | > 100 µM | > 100 | > 100 µM | > 100 µM | > 100 µM | > 100 µM | > 100 µM | > 100 µM | > 100 µM | > 100 µM | > 100 µM | > 100 µM | > 100 µM | > 100 µM |
| N#Cc1ccc(/C=C/C(=O)c2ccccc2)cc1 | 13.4 µM and 12.3 µM | 26.2 µM and 24.9 µM | 18.3 µM and 2.13 µM | 50.9 µM and 5.64 µM | 4.18 µM and 2.27 µM | 14.6 µM and 5.58 µM | 2.83 µM and 2.3 µM | > 26.2 | 10.8 µM and 15.4 µM | 24.3 µM and 33.2 µM | 16.5 µM and 13.2 µM | 36.5 µM and 27 µM | 13.9 µM and 15.9 µM | 26.9 µM and 29.4 µM | 14 µM and 12.6 µM | 26.9 µM and 25.4 µM | 14.8 µM and 14.2 µM | 28.3 µM and 27.7 µM | 2.95 µM and 3.76 µM | 9.52 µM and 11.8 µM |
| Nc1ccc(C(=O)Nc2ccccc2N)cc1 |  | > 100 µM |  | > 100 µM |  | > 100 µM |  | > 100 |  | > 100 µM |  | > 76.5 µM |  | > 100 µM |  | 43.4 µM |  | > 100 µM |  | 59.8 µM |
